# Results published in patent publication US7432397B2, “Imaging compounds” (Hammersmith Imanet Ltd., priority 2002, dated 2008).
# Marks after values point to notes of the source that are not given here.
# Assay: Biodistribution of radioactivity in rat tissues after intravenous injection
# Type: in vivo
# Conditions: for Radioactivity in Entorhinal cortex / Radioactivity in Fat / Radioactivity in Heart (ventricle) / Radioactivity in Hippocampus / Radioactivity in Hypothalamus / Radioactivity in Inferior collicull / Radioactivity in Kidney / Radioactivity in Large intestine / Radioactivity in Lge. intestine content / Radioactivity in Liver / Radioactivity in Lung / Radioactivity in Medulla with Pons / Radioactivity in Olfactory bulbs / Radioactivity in Olfactory tubercles / Radioactivity in Prefrontal cortex / Radioactivity in Skeletal muscle / Radioactivity in Skin / Radioactivity in Sm. intestine content / Radioactivity in Small intestine / Radioactivity in Somatosensory cortex / Radioactivity in Spleen / Radioactivity in Stomach / Radioactivity in Striata / Radioactivity in Superior collicull / Radioactivity in Testis / Radioactivity in Thalamus / Radioactivity in Urine / Radioactivity in Visual cortex / Radioactivity in Plasma / Radioactivity in Whole blood / Radioactivity in Cerebellum: i.v.; for Radioactivity in Plasma / Radioactivity in Whole blood: composite curve of 9 rats
# Procedure: Sixteen adult male Sprague-Dawley rats (body weight 250-320 g: mean±SD=288±25 g) were used in 5 separate experiments. Each rat was injected with ˜13 MBq Compound 1, at a specific activity of […], via a previously catheterised tail vein. The associated stable compound was 0.5±0.2 nmol/kg. Discrete samples of arterial blood were collected from 9 of the rats via a previously catheterised tail artery.
# Tissues were sampled post-mortem using an established protocol, as described in Hirani et al, Synapse 42:164-176 (2001). The radioactivity concentration data obtained at 12 times up to 90 min after radioligand injection were normalised for both amount injected and body weight, giving:—‘uptake units’=(cpm/g tissue)/(injected cpm/g body weight).
# [1] = period 5 to 90 min after intravenous injection
structure (smiles),measurement,setting,value
"CSc1cccc(N([11CH3])C(=N)Nc2cc(SC)ccc2Cl)c1 [Compound 1, (N-(2-chloro-5-(methylthio)phenyl)-N′-(3-methylthio)phenyl)-N′-[N-methyl-^11C]-methylguanidine]",Radioactivity in Entorhinal cortex,30 min,1.31 Uptake Units
same,Radioactivity in Fat,30 min,0.71 Uptake Units
same,Radioactivity in Heart (ventricle),30 min,0.99 Uptake Units
same,Radioactivity in Hippocampus,30 min,1.32 Uptake Units
same,Radioactivity in Hypothalamus,30 min,1.22 Uptake Units
same,Radioactivity in Inferior collicull,30 min,1.16 Uptake Units
same,Radioactivity in Kidney,30 min,2.85 Uptake Units
same,Radioactivity in Large intestine,30 min,1.11 Uptake Units
same,Radioactivity in Lge. intestine content,30 min,0.36 Uptake Units
same,Radioactivity in Liver,30 min,7.84 Uptake Units
same,Radioactivity in Lung,30 min,7.48 Uptake Units
same,Radioactivity in Medulla with Pons,30 min,1.26 Uptake Units
same,Radioactivity in Olfactory bulbs,30 min,1.10 Uptake Units
same,Radioactivity in Olfactory tubercles,30 min,1.24 Uptake Units
same,Radioactivity in Prefrontal cortex,30 min,1.51 Uptake Units
same,Radioactivity in Skeletal muscle,30 min,0.68 Uptake Units
same,Radioactivity in Skin,30 min,0.75 Uptake Units
same,Radioactivity in Sm. intestine content,30 min,7.14 Uptake Units
same,Radioactivity in Small intestine,30 min,2.30 Uptake Units
same,Radioactivity in Somatosensory cortex,30 min,1.37 Uptake Units
same,Radioactivity in Spleen,30 min,4.75 Uptake Units
same,Radioactivity in Stomach,30 min,1.07 Uptake Units
same,Radioactivity in Striata,30 min,1.32 Uptake Units
same,Radioactivity in Superior collicull,30 min,1.19 Uptake Units
same,Radioactivity in Testis,30 min,0.76 Uptake Units
same,Radioactivity in Thalamus,30 min,1.43 Uptake Units
same,Radioactivity in Urine,30 min,37.5 Uptake Units
same,Radioactivity in Visual cortex,30 min,1.55 Uptake Units
same,Radioactivity in Plasma,30 min,0.18 Uptake Units
same,Radioactivity in Whole blood,30 min,0.19 Uptake Units
same,Radioactivity in Cerebellum,40 min,0.62 Uptake Units
same,Radioactivity in Entorhinal cortex,40 min,0.85 Uptake Units
same,Radioactivity in Fat,40 min,0.45 Uptake Units
same,Radioactivity in Heart (ventricle),40 min,0.63 Uptake Units
same,Radioactivity in Hippocampus,40 min,0.86 Uptake Units
same,Radioactivity in Hypothalamus,40 min,0.76 Uptake Units
same,Radioactivity in Inferior collicull,40 min,0.64 Uptake Units
same,Radioactivity in Kidney,40 min,1.79 Uptake Units
same,Radioactivity in Large intestine,40 min,0.66 Uptake Units
same,Radioactivity in Lge. intestine content,40 min,0.23 Uptake Units
same,Radioactivity in Liver,40 min,5.76 Uptake Units
same,Radioactivity in Lung,40 min,3.99 Uptake Units
same,Radioactivity in Medulla with Pons,40 min,0.80 Uptake Units
same,Radioactivity in Olfactory bulbs,40 min,0.64 Uptake Units
same,Radioactivity in Olfactory tubercles,40 min,0.72 Uptake Units
same,Radioactivity in Prefrontal cortex,40 min,0.93 Uptake Units
same,Radioactivity in Skeletal muscle,40 min,0.61 Uptake Units
same,Radioactivity in Skin,40 min,0.39 Uptake Units
same,Radioactivity in Sm. intestine content,40 min,3.68 Uptake Units
same,Radioactivity in Small intestine,40 min,1.09 Uptake Units
same,Radioactivity in Somatosensory cortex,40 min,0.88 Uptake Units
same,Radioactivity in Spleen,40 min,2.83 Uptake Units
same,Radioactivity in Stomach,40 min,0.45 Uptake Units
same,Radioactivity in Striata,40 min,0.84 Uptake Units
same,Radioactivity in Superior collicull,40 min,0.65 Uptake Units
same,Radioactivity in Testis,40 min,0.74 Uptake Units
same,Radioactivity in Thalamus,40 min,0.92 Uptake Units
same,Radioactivity in Urine,40 min,27.5 Uptake Units
same,Radioactivity in Visual cortex,40 min,0.89 Uptake Units
same,Radioactivity in Plasma,40 min,0.16 Uptake Units
same,Radioactivity in Whole blood,40 min,0.16 Uptake Units
same,Radioactivity in Cerebellum,50 min,0.55 Uptake Units
same,Radioactivity in Entorhinal cortex,50 min,0.75 Uptake Units
same,Radioactivity in Fat,50 min,0.49 Uptake Units
same,Radioactivity in Heart (ventricle),50 min,0.50 Uptake Units
same,Radioactivity in Hippocampus,50 min,0.73 Uptake Units
same,Radioactivity in Hypothalamus,50 min,0.61 Uptake Units
same,Radioactivity in Inferior collicull,50 min,0.56 Uptake Units
same,Radioactivity in Kidney,50 min,1.68 Uptake Units
same,Radioactivity in Large intestine,50 min,0.76 Uptake Units
same,Radioactivity in Lge. intestine content,50 min,0.35 Uptake Units
same,Radioactivity in Liver,50 min,5.01 Uptake Units
same,Radioactivity in Lung,50 min,5.30 Uptake Units
same,Radioactivity in Medulla with Pons,50 min,0.70 Uptake Units
same,Radioactivity in Olfactory bulbs,50 min,0.58 Uptake Units
same,Radioactivity in Olfactory tubercles,50 min,0.65 Uptake Units
same,Radioactivity in Prefrontal cortex,50 min,0.80 Uptake Units
same,Radioactivity in Skeletal muscle,50 min,0.61 Uptake Units
same,Radioactivity in Skin,50 min,0.52 Uptake Units
same,Radioactivity in Sm. intestine content,50 min,4.03 Uptake Units
same,Radioactivity in Small intestine,50 min,1.19 Uptake Units
same,Radioactivity in Somatosensory cortex,50 min,0.71 Uptake Units
same,Radioactivity in Spleen,50 min,2.95 Uptake Units
same,Radioactivity in Stomach,50 min,0.32 Uptake Units
same,Radioactivity in Striata,50 min,0.69 Uptake Units
same,Radioactivity in Superior collicull,50 min,0.57 Uptake Units
same,Radioactivity in Testis,50 min,0.69 Uptake Units
same,Radioactivity in Thalamus,50 min,0.85 Uptake Units
same,Radioactivity in Urine,50 min,84.5 Uptake Units
same,Radioactivity in Visual cortex,50 min,0.72 Uptake Units
same,Radioactivity in Plasma,50 min,0.17 Uptake Units
same,Radioactivity in Whole blood,50 min,0.16 Uptake Units
same,Radioactivity in Cerebellum,60 min,0.54* Uptake Units
same,Radioactivity in Entorhinal cortex,60 min,0.73* Uptake Units
same,Radioactivity in Fat,60 min,0.79* Uptake Units
same,Radioactivity in Heart (ventricle),60 min,0.59* Uptake Units
same,Radioactivity in Hippocampus,60 min,0.76* Uptake Units
same,Radioactivity in Hypothalamus,60 min,0.65* Uptake Units
same,Radioactivity in Inferior collicull,60 min,0.54* Uptake Units
same,Radioactivity in Kidney,60 min,1.87* Uptake Units
same,Radioactivity in Large intestine,60 min,1.03* Uptake Units
same,Radioactivity in Lge. intestine content,60 min,0.44* Uptake Units
same,Radioactivity in Liver,60 min,5.73* Uptake Units
same,Radioactivity in Lung,60 min,4.10* Uptake Units
same,Radioactivity in Medulla with Pons,60 min,0.67* Uptake Units
same,Radioactivity in Olfactory bulbs,60 min,0.55* Uptake Units
same,Radioactivity in Olfactory tubercles,60 min,0.65* Uptake Units
same,Radioactivity in Prefrontal cortex,60 min,0.77* Uptake Units
same,Radioactivity in Skeletal muscle,60 min,0.49* Uptake Units
same,Radioactivity in Skin,60 min,0.46* Uptake Units
same,Radioactivity in Sm. intestine content,60 min,6.08* Uptake Units
same,Radioactivity in Small intestine,60 min,1.29* Uptake Units
same,Radioactivity in Somatosensory cortex,60 min,0.68* Uptake Units
same,Radioactivity in Spleen,60 min,2.98* Uptake Units
same,Radioactivity in Stomach,60 min,0.66* Uptake Units
same,Radioactivity in Striata,60 min,0.67* Uptake Units
same,Radioactivity in Superior collicull,60 min,0.54* Uptake Units
same,Radioactivity in Testis,60 min,0.89* Uptake Units
same,Radioactivity in Thalamus,60 min,0.74* Uptake Units
same,Radioactivity in Urine,60 min,24.4* Uptake Units
same,Radioactivity in Visual cortex,60 min,0.73* Uptake Units
same,Radioactivity in Plasma,60 min,0.18 Uptake Units
same,Radioactivity in Whole blood,60 min,0.17 Uptake Units
same,Radioactivity in Cerebellum,70 min,0.38* Uptake Units
same,Radioactivity in Entorhinal cortex,70 min,0.41 Uptake Units
same,Radioactivity in Fat,70 min,0.55* Uptake Units
same,Radioactivity in Heart (ventricle),70 min,0.52* Uptake Units
same,Radioactivity in Hippocampus,70 min,0.54* Uptake Units
same,Radioactivity in Hypothalamus,70 min,0.33 Uptake Units
same,Radioactivity in Inferior collicull,70 min,0.39 Uptake Units
same,Radioactivity in Kidney,70 min,1.88* Uptake Units
same,Radioactivity in Large intestine,70 min,0.76* Uptake Units
same,Radioactivity in Lge. intestine content,70 min,0.57* Uptake Units
same,Radioactivity in Liver,70 min,6.02* Uptake Units
same,Radioactivity in Lung,70 min,4.62* Uptake Units
same,Radioactivity in Medulla with Pons,70 min,0.39 Uptake Units
same,Radioactivity in Olfactory bulbs,70 min,0.31 Uptake Units
same,Radioactivity in Olfactory tubercles,70 min,0.36 Uptake Units
same,Radioactivity in Prefrontal cortex,70 min,0.52* Uptake Units
same,Radioactivity in Skeletal muscle,70 min,0.44* Uptake Units
same,Radioactivity in Skin,70 min,0.47* Uptake Units
same,Radioactivity in Sm. intestine content,70 min,5.41* Uptake Units
same,Radioactivity in Small intestine,70 min,1.34* Uptake Units
same,Radioactivity in Somatosensory cortex,70 min,0.38 Uptake Units
same,Radioactivity in Spleen,70 min,2.97* Uptake Units
same,Radioactivity in Stomach,70 min,0.96 Uptake Units
same,Radioactivity in Striata,70 min,0.46* Uptake Units
same,Radioactivity in Superior collicull,70 min,0.28 Uptake Units
same,Radioactivity in Testis,70 min,0.74* Uptake Units
same,Radioactivity in Thalamus,70 min,0.40 Uptake Units
same,Radioactivity in Urine,70 min,16.9* Uptake Units
same,Radioactivity in Visual cortex,70 min,0.38 Uptake Units
same,Radioactivity in Plasma,70 min,0.20 Uptake Units
same,Radioactivity in Whole blood,70 min,0.18 Uptake Units
same,Radioactivity in Cerebellum,90 min,0.32* Uptake Units
same,Radioactivity in Entorhinal cortex,90 min,0.38* Uptake Units
same,Radioactivity in Fat,90 min,0.51* Uptake Units
same,Radioactivity in Heart (ventricle),90 min,0.40* Uptake Units
same,Radioactivity in Hippocampus,90 min,0.46* Uptake Units
same,Radioactivity in Hypothalamus,90 min,0.35* Uptake Units
same,Radioactivity in Inferior collicull,90 min,0.36 Uptake Units
same,Radioactivity in Kidney,90 min,1.50* Uptake Units
same,Radioactivity in Large intestine,90 min,0.61* Uptake Units
same,Radioactivity in Lge. intestine content,90 min,0.66* Uptake Units
same,Radioactivity in Liver,90 min,3.85* Uptake Units
same,Radioactivity in Lung,90 min,2.62* Uptake Units
same,Radioactivity in Medulla with Pons,90 min,0.39* Uptake Units
same,Radioactivity in Olfactory bulbs,90 min,0.28* Uptake Units
same,Radioactivity in Olfactory tubercles,90 min,0.36* Uptake Units
same,Radioactivity in Prefrontal cortex,90 min,0.45* Uptake Units
same,Radioactivity in Skeletal muscle,90 min,0.35* Uptake Units
same,Radioactivity in Skin,90 min,0.40* Uptake Units
same,Radioactivity in Sm. intestine content,90 min,3.66* Uptake Units
same,Radioactivity in Small intestine,90 min,0.93* Uptake Units
same,Radioactivity in Somatosensory cortex,90 min,0.43* Uptake Units
same,Radioactivity in Spleen,90 min,2.07* Uptake Units
same,Radioactivity in Stomach,90 min,0.34* Uptake Units
same,Radioactivity in Striata,90 min,0.41* Uptake Units
same,Radioactivity in Superior collicull,90 min,0.23 Uptake Units
same,Radioactivity in Testis,90 min,0.79* Uptake Units
same,Radioactivity in Thalamus,90 min,0.42* Uptake Units
same,Radioactivity in Urine,90 min,46.4* Uptake Units
same,Radioactivity in Visual cortex,90 min,0.44* Uptake Units
same,Radioactivity in Plasma,90 min,0.21 Uptake Units
same,Radioactivity in Whole blood,90 min,0.18 Uptake Units
same,radioactivity level in plasma,[1],~0.2 uptake units
same,radioactivity level in whole blood,[1],~0.2 uptake units
